Experimental data taken from patent US20070020203A1, “Skin care composition” (priority 2005, published 2007).

Molecular target: Mushroom Tyrosinase (Agaricus bisporus, UniProt C7FF04)
Assay: Comparative tyrosinase inhibitory activity (dopachrome optical density at 475 nm)
Format: biochemical
Protocol: All measurements were performed at room temperature (24 C) with a Beckman Coulter DU-640 spectrophotometer at a scan speed of 1200 nm/min with a spectral range from 300 to 700 nm.
Buffer solution • KH2PO4 99.8% & KOH 85+% (pH 7.4, 100 mM) • Mol. Wt. 136.09, VWR and Sigma-Aldrich • KH2PO4 (1362 mg) dissolved in distilled water (100 ml) and pH adjusted to 7.4 with a 2 M KOH solution • 2. Mushroom Tyrosinase solution (240 units per 1 ml) • 2440 units/mg, Sigma-Aldrich • Tyrosinase (2.5 mg) dissolved in 25 ml of distilled water • 3. L-DOPA solution (6.3 mM) • Mol. Wt. 197, Sigma-Aldrich • 33.1 mg are dissolved in distilled water (25 ml) • 4. L-Tyrosine solution (1.3 mM) • Mol. Wt. 181.2, Sigma-Aldrich • 23.5 mg are dissolved in distilled water (100 ml) • 5. Hydrogen peroxide solution (5 mM) • Sigma-Aldrich • 1/100 of 0.9/25 vol. dilution of a 50% wt. solution b) Skin Lightening Ingredients • 5. Emblica™ antioxidant (5 mM)—Lot # CA0106007 • Average Mol. Wt. 729, EMD Chemicals / Merck KGaA • Emblica (18.2 mg) dissolved in distilled water (5 ml) • 6. […]
The stock solutions were added in an orderly manner with quantities according to Table 1 as to obtain a final total volume of 3.0 ml for each preparation. […] After 15 min of reaction time, the spectra were recorded between 300 and 700 nm and the optical density at 475 nm (Dopachrome) measured.

Mushroom Tyrosinase, sequence (C7FF04 1-392): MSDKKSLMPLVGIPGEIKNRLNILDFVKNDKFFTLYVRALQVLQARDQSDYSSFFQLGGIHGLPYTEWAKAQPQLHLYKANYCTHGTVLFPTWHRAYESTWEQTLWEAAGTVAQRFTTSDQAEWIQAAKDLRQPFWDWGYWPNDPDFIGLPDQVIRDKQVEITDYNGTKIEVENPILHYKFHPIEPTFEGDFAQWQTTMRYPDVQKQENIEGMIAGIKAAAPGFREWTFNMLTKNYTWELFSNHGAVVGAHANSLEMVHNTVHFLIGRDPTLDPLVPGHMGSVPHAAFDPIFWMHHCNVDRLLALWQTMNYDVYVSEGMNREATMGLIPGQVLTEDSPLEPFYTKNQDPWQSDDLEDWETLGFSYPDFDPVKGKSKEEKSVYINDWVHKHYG
Mushroom Tyrosinase, sequence (G1K3P4 entry or part of it, further chain): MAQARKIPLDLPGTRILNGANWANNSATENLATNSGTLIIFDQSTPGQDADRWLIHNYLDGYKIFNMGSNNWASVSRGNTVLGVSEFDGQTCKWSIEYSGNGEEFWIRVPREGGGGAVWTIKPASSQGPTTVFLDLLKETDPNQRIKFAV

In the case of `Oc1ccc(O)cc1` [Hydroquinone], the “inhibitory activity against tyrosinase (in words)” value (DOPA as substrate) was “less effective” and the “inhibitory activity against tyrosinase (in words)” value (tyrosine used as a substrate) was “excellent inhibitory activity”.
